# In US11061016B2, “In vitro model for pathological or physiologic conditions” (HemoShear, LLC, priority 2012, dated 2021):
# Read-outs that look alike come from different tables or passages of the source.
# What was measured:
# cytochrome p450 3A = assay: Cytochrome p450 activity assay (P450-GLO), 3A; format: in vitro ADME, rat; details: controlled hemodynamics; dexamethasone 02.5 μM, 48 hours; DMSO 11.64
# Experimental: (§3) Porous membrane segments roughly 2 cm^2 in area were excised and transferred to standard 24-well plates alongside corresponding static cultures. The cells were incubated with 500 μl of hepatocyte media containing substrates from commercially available P450-GLO kits (kits for luminescent cytochrome p450 assays) at the manufacturer-recommended concentrations. After 4 hours, the media was transferred to 96-well plates and assayed for luminescent metabolites to reflect cytochrome p450 activity as per the manufacturer protocol.
# (§4) After 48 hours, on day 7, segments of the porous membrane from the devices containing hepatocytes cultured under controlled hemodynamics that were roughly 2.0 cm^2 in area were excised and transferred to standard 24-well plates and treated with substrates for the Cyp p450 enzymes in parallel to corresponding static cultures treated with the different agents. Cytochrome p450 assays were done on day 7 using commercially available P450-GLO kits. After 4 hours the media was transferred to 96-well plates and assayed for luminescent metabolites to reflect cytochrome p450 activity.
# primary rat hepatocytes [1] = assay: Toxicity to hepatocytes under controlled flow during Cyp induction; details: 50 μM dexamethasone, concentration recommended for static cultures
# Experimental: Cytochrome p450 assays were done on day 7 using commercially available P450-GLO kits. After 4 hours the media was transferred to 96-well plates and assayed for luminescent metabolites to reflect cytochrome p450 activity.
# endothelial cells [2] = assay: oxLDL and TNFα in hemodynamic environment: RT-PCR gene expression; format: cell-based; details: atheroprone shear stress, 50 μg/ml oxLDL without or with 0.05 ng/ml TNFα
# Experimental: To emulate more inflammatory stages of atherosclerosis, it is desirable to combine multiple circulating factors to better emulate the complexity found within human blood vessels. […] The media in the upper volume was then exchanged for media containing 0.05 ng/ml TNFα and 50 μg/ml of oxLDL. Media containing only 50 μg/ml of nLDL was used as a control.
# Following 24 hours of shear stress preconditioning with atheroprotective or atheroprone hemodynamic forces, 50 μg/ml of oxLDL and 0.05 ng/ml of TNFα were added to upper volume (containing the endothelial cells). This concentration of TNFα is similar to plasma concentrations of TNFα observed in patients with cardiovascular disease. In devices not receiving oxLDL, nLDL was added to the upper volume at the same concentration and used as a vehicle control. Shear stress application was continued for an additional 24 hours in the presence of TNF-α and oxLDL (see FIG. 5). Gene expression analysis was performed using RT-PCR.
# NFκB = assay: NFκB-luciferase reporter (Ad-NFκB-luc); format: cell-based; details: smooth muscle cells; oxLDL added to upper volume only
# Experimental: (§1) Five different donor pairs were used to analyze the oxLDL (50 μg/ml) response compared to nLDL (50 μg/ml) within the atheroprone hemodynamic environment in endothelial cells and smooth muscle cells. […] Significant genes were considered using an FDR of 0.01. Gene expression results are reported as the relative expression of the gene as compared to the expression of β-2 microglobulin (B2M). Protein expression results are reported as the relative expression of the protein as compared to the expression of actin. Activity of NFκB was assessed using an adenovirus NFκB-luciferase (Ad-NFκB-luc) reporter infected in ECs and SMCs.
# [3] = system: endothelial cells and smooth muscle cells; assay: oxLDL in hemodynamic environment: gene array, gene, protein and cytokine expression; format: cell-based; details: for number of genes regulated as compared to cells treated with nLDL: atheroprone, 50 μg/ml oxLDL vs 50 μg/ml nLDL
# Experimental: Following 16-24 hours of shear stress preconditioning with atheroprotective or atheroprone hemodynamic forces, oxLDL was added to upper volume (containing the endothelial cells) at a concentration of 10-50 μg/ml (FIG. 5). In devices not receiving oxLDL, nLDL was added to the upper volume at the same concentration and used as a vehicle control. This concentration of oxLDL is similar to plasma concentrations of oxLDL observed in patients with cardiovascular disease. Shear stress application was continued for an additional 24 hours in the presence of oxLDL.
# as §1
# endothelial cells [4] = assay: TNFα in hemodynamic environment: gene expression; format: cell-based; details: 0.1-1 ng/ml TNFα; atheroprone hemodynamic forces; not seen at same levels in static cultures
# Experimental: Following 24 hours of shear stress preconditioning with atheroprotective or atheroprone hemodynamic forces, TNFα was added to upper volume (containing the endothelial cells) at a concentration of 0.05-1 ng/ml (see FIG. 5). This concentration of TNFα is similar to plasma concentrations of TNFα observed in patients with cardiovascular disease. Shear stress application was continued for an additional 24 hours in the presence of TNFα.
# [5] = system: Endothelial/smooth muscle cell co-cultures; assay: Coculture thrombosis assay with shear stress, Protocol A (fibrin deposition); format: cell-based, Human; details: atheroprone hemodynamics vs static cultures
# Experimental: (§2) Human endothelial cells were co-cultured with or without smooth muscle cells in the presence or absence of human-derived, region-specific hemodynamics. Endothelial cells were exposed to TNFα at various concentrations and incubated in human, platelet-free plasma supplemented by ALEXA FLUOR 488 (A488, a fluorescent dye)-labeled fibrinogen. Conversion of A488-fibrinogen to A488-fibrin and deposition on the endothelium was quantified by confocal microscopy.
# Following 24 hours of shear stress application (atheroprone or atheroprotective), the media was supplemented with TNFα at a concentration of 0.05 ng/mL or 0.10 ng/mL and shear stress was continued for an additional 24 hours, as shown in FIG. 3A. Media was then removed from both the upper and lower chambers, and both the endothelial cells and smooth muscle cells are washed twice with PBS. Endothelial cells were then incubated for 15 minutes at 37° C. with PFP supplemented with 37.5 μg/mL ALEXA-488 human fibrinogen, 20 μg/mL corn trypsin inhibitor, and 10 mM calcium, and fixed and imaged as described above for monocultures.
# [6] = system: endothelial and smooth muscle cells; assay: Expression of genes relevant to thrombosis; format: cell-based, Human; details: TNFα stimulation; both endothelial and smooth muscle cells
# Experimental: as §2
# FIG. 2B depicts a heat map of relative gene expression in endothelial and smooth muscle cells (grown under atheroprone or atheroprotective conditions; see FIG. 2A) of several genes relevant to thrombosis. The relative changes in gene expression of Tissue Factor (F3) and Thrombomodulin (THBD) are presented below the heat map. Atheroprone hemodynamics up-regulate Tissue Factor (F3) compared to atheroprotective shear stress. […] In addition, TNFα stimulation reduces Tissue Factor Pathway Inhibitor (TFPI) in both endothelial and smooth muscle cells.
# cytochrome p450 1A/1B = assay: Cytochrome p450 activity assay (P450-GLO), 1A/1B
# Experimental: as §3, §4
# [7] = system: endothelial cells and smooth muscle cells; assay: Hypertension model gene array analysis; format: cell-based; details: healthy and atheroprone conditions
# Experimental: ANG2 at a concentration of 10 nM (10.46 ng/ml) or a DMSO vehicle control (VEH) was added to the upper volume and RNA was collected for gene array analysis.
# Aldosterone at a concentration of 1 mM or a vehicle control (VEH) was added to the upper volume and RNA was collected for gene array analysis
# primary rat hepatocytes [8] = assay: Gluconeogenesis assay (AMPLEX RED glucose); format: cell-based; details: for Effect (% Change) on glucose levels: insulin 2 nM or glucagon 100 nM; for glucose levels: decreased by (insulin) / increased by (glucagon) / glucose levels: decreased by (insulin) / increased by further (glucagon): insulin 2 nM, glucagon 100 nM; for glucose levels: decreased by (insulin) / increased by further (glucagon): substrate glycerol
# [9] = system: endothelial cell/smooth muscle cell co-cultures; assay: HDL in hemodynamic environment; format: cell-based; details: HDL at 45 μg/ml or 90 μg/ml; hemodynamic shear stress
# Experimental: An additional component of plasma cholesterol distinct from nLDL or oxLDL is HDL. […] HDL was then added to the upper volume at a concentration of 45-1,000 μg/ml. This broad range reflects the broad range of HDL concentrations that can exist within human patients. HDL concentrations in individuals at risk for vascular disease are generally less than about 300 μg/ml, while HDL concentrations in healthy individuals range from greater than about 300 μg/ml up to about 2,000 μg/ml in healthy exercising patients.
# In additional experiments, endothelial cell/smooth muscle cell co-cultures plated as described above were preconditioned for 16 hours with hemodynamic shear stress. From hours 16-24 the cells were additionally primed with 0.05 ng/ml TNFα and 50 μg/ml of oxLDL (compared to a vehicle control containing 50 μg/ml nLDL) in the upper volume. At 24 hours, 45 μg/ml or 90 μg/ml HDL was added to the media in the upper volume and hemodynamic shear stress was continued for the next 24 hours (hours 24-48).
# primary rat hepatocytes [10] = assay: miRNA122 assay; format: cell-based; details: static conditions; chlorpromazine 1 μM, 4 hours
# Experimental: The hepatocytes were then washed with PBS and incubated with serum free hepatocyte medium with or without known toxic drug chlorpromazine (CPZ) at two different concentrations (1 μM and 10 μM) for 4 hours. Supernatants from the cells were collected and microRNA extraction was performed using the MIRNEASY serum/plasma kit (a kit for extracting microRNA, Qiagen). The cDNA was prepared by using the MISCRIPTII RT kit (a kit for preparing cDNA, Qiagen) and samples quantified using the MISCRIPT SYBR GREEN PCR kit (a kit for quantifying cDNA, Qiagen), following the manufacturer's instructions.
# The hepatocytes were washed with PBS and immediately incubated with either vehicle (distilled water) or chlorpromazine (1 μM) for 4 hours. The supernatant was collected and miRNA 122 levels were measured as described above.
# [11] = system: primary human hepatocytes; details: 72 h
# Experimental: Hepatocytes were then incubated with medium containing 1 mg/ml of MTT reagent (thiazolyl blue tetrazolium bromide) for 1 hour, following which the cells were lysed in DMSO to release the formazan blue dye formed. The solution was transferred to a 96 well plate and the absorbance was read at 595 nm.
# [12] = system: primary human hepatocytes; details: 1 μM chlorpromazine; controlled hemodynamic conditions relative to static controls
# primary rat hepatocytes [13] = assay: Biliary activity stain (CDFDA), canalicular pattern; format: cell-based; details: controlled hemodynamic conditions, 48 hours
# Excerpt: Samples were then washed with PBS and placed on glass slide for confocal imaging.
# rat hepatocytes = assay: RT-PCR of oxidative stress-related and MRP genes; details: controlled hemodynamic conditions
# [14] = atheroprone hemodynamic environment
# [15] = No substrate, 4 hours, controlled hemodynamics
# [16] = substrate Glycerol (2 mM), 4 hours
# [17] = substrate Lactate/Pyruvate (20 mM/2 mM), 4 hours
# [18] = substrates lactate and pyruvate
compound,measurement,setting,value
"C[C@@H]1C[C@H]2[C@@H]3CCC4=CC(=O)C=C[C@]4(C)[C@@]3(F)[C@@H](O)C[C@]2(C)[C@@]1(O)C(=O)CO [Dexamethasone, dexamethasone]",3A response (cytochrome p450 activity normalized to ATP content),cytochrome p450 3A,57.53
same,toxicity in the controlled flow system,primary rat hepatocytes [1],toxic
oxidized low-density lipoprotein [oxLDL],eNOS gene expression (NOS3),endothelial cells [2],reduced
same,E-Selectin (SELE) gene expression,endothelial cells [2]; control nLDL,higher levels
same,NFκB signaling (luciferase reporter),NFκB,elevated
same,atheroprotective signaling (eNOS and KLF2) gene expression,[3]; atheroprone conditions,reduced
same,inflammatory genes IL8 and E-Selectin (SELE) expression,"[3]; atheroprone conditions, not regulated in traditional static cultures",activate
same,"levels of secreted cytokines (IL6, IL8, MCP-1)",[3]; [14],increased
same,phosphorylation of atheroprotective eNOS signaling,[3]; [14],reduced
same,number of genes regulated as compared to cells treated with nLDL,"[3]; endothelial cells, 5 donors",688 genes
same,number of genes regulated as compared to cells treated with nLDL,"[3]; smooth muscle cells, 4 donors",304 genes
tumor necrosis factor-α [TNFα],"inflammatory response (expression of E-Selectin, ICAM, VCAM, IL8)",endothelial cells [4],induced an inflammatory response
same,lower levels of TNFα to induce fibrin deposition as compared to static cultures,[5],100- to 200 fold
same,Tissue Factor Pathway Inhibitor (TFPI) expression,[6],reduces
"Cc1ccc2cc3c(ccc4ccccc43)c3c2c1CC3 [3-MC, 3-Methyl Cholanthrene]",induction responses seen at lower levels under controlled hemodynamics,cytochrome p450 1A/1B; controlled hemodynamics (0.1 μM) vs static (1 μM),10 fold
same,1A/1B response (cytochrome p450 activity normalized to ATP content),"cytochrome p450 1A/1B; controlled hemodynamics, 3-MC 0.1 μM, 48 hours, DMSO 4.87",133.06
"Angiotensin II (DRVYIHPF; Angiotensin-2; UniProt P01019 25-32, looked up) [ANG2]",inflammatory genes (gene array),[7]; ANG2 10 nM (10.46 ng/ml) vs DMSO vehicle,upregulated
"OCC(O)CO [Glycerol, glycerol]",change in glucose produced with substrate alone,"primary rat hepatocytes [8]; Glycerol 2 mM, no hormone, 4 hours",Glycerol (+67%)
same,glucose produced by the hepatocytes increased by,primary rat hepatocytes [8]; substrate glycerol (2 mM) alone,67%
C[C@]12CCC(=O)C=C1CC[C@@H]1[C@@H]2[C@@H](O)C[C@]2(C=O)[C@@H](C(=O)CO)CC[C@@H]12 [aldosterone],inflammatory genes (gene array),[7]; Aldosterone 1 mM vs vehicle,upregulated
insulin,Effect (% Change) on glucose levels,primary rat hepatocytes [8]; [15],−27%
same,glucose levels: decreased by (insulin) / increased by (glucagon),primary rat hepatocytes [8]; absence of a substrate,27%
same,Effect (% Change) on glucose levels,primary rat hepatocytes [8]; [16],−38%
same,Effect (% Change) on glucose levels,primary rat hepatocytes [8]; [17],−25%
same,glucose levels: decreased by (insulin) / increased by further (glucagon),primary rat hepatocytes [8],38%
same,glucose levels: decreased by (insulin) / increased by (glucagon),primary rat hepatocytes [8]; [18],25%
high-density lipoprotein [HDL],atheroprotective and pro-inflammatory gene and protein activation,[9],activates many atheroprotective genes while blocking activation of pro-inflammatory genes and proteins
CN(C)CCCN1c2ccccc2Sc2ccc(Cl)cc21 [chlorpromazine],miRNA 122 levels in the supernatants compared to vehicle controls,primary rat hepatocytes [10],did not cause any change
same,toxicity,[11]; 1 μM,30.3%
same,toxicity,[11]; 10 μM,46.4%
same,upregulation of APEX nuclease gene,[12],2.8 fold
same,upregulation of glutathione reductase (GSR) gene,[12],8.3 fold
same,upregulation of sorbitol dehydrogenase (SORD) gene,[12],6.9 fold
same,upregulation of thioredoxin reductase 1 (TXNRD1) gene,[12],5.5 fold
glucagon,Effect (% Change) on glucose levels,primary rat hepatocytes [8]; [15],+51%
same,glucose levels: decreased by (insulin) / increased by (glucagon),primary rat hepatocytes [8]; absence of a substrate,51%
same,Effect (% Change) on glucose levels,primary rat hepatocytes [8]; [16],+15%
same,Effect (% Change) on glucose levels,primary rat hepatocytes [8]; [17],+80%
same,glucose levels: decreased by (insulin) / increased by further (glucagon),primary rat hepatocytes [8],15%
same,glucose levels: decreased by (insulin) / increased by (glucagon),primary rat hepatocytes [8]; [18],80%
Cc1c(C)c2c(c(C)c1O)CCC(C)(COc1ccc(CC3SC(=O)NC3=O)cc1)O2 (stereo not shown) [troglitazone],changes in the canalicular pattern (cholestatic changes),primary rat hepatocytes [13]; troglitazone 4 uM,visibly dilated canalicular structures
same,changes in the canalicular pattern (cholestatic changes),primary rat hepatocytes [13]; troglitazone 40 uM,much more prominent and extensive
same,oxidative stress-related genes and MRP3 and MRP4 genes,rat hepatocytes,upregulation
